Patent publication US5688787A, “Substituted β-lactam compounds useful as hypochlesterolemic agents and processes for the preparation thereof” (priority 1996, dated 1997)
Read-outs that look alike come from different tables or passages of the source.

Tested on: Hyperlipidemic Hamster
Assay: In Vivo Assay of Hypolipidemic Agents Using the Hyperlipidemic Hamster
Conditions: Mesocricetus auratus, po, 168 h; for change in vivo at 3 mg/kg: 3 mg/kg once daily oral; for change in vivo at 10 mg/kg: 10 mg/kg once daily oral; for change in vivo at 40 mg/kg: 40 mg/kg once daily oral
Description: In Vivo Assay of Hypolipidemic Agents Using the Hyperlipidemic Hamster
Hamsters are separated into groups of six and given a controlled cholesterol diet (Purina Chow #5001 containing 0.5% cholesterol) for seven days. Diet consumption is monitored to determine dietary cholesterol exposure in the face of test compounds. The animals are dosed with the test compound once daily beginning with the initiation of diet. Dosing is by oral gavage of 0.2mL of corn oil alone (control group) or solution (or suspension) of test compound in corn oil. All animals roodbund or in poor physical condition are euthanized. After seven days, the animals are anesthetized by IM injection of ketamine and sacrificed by decapitation. Blood is collected into vacutainer tubes containing EDTA for plasma lipid analysis and the liver excised for tissue lipid analysis. Data is reported as percent reduction of lipid versus control.
Using the test procedures described above, the following in vitro and in vivo data were obtained for the preferred compounds, which are referred to in the following table by the corresponding example numbers. For the in vitro ACAT data, negative percent inhibition denotes apparent stimulation,while positive numbers denote inhibition. For the in vivo results, data is reported as percent change versus control, therefore, negative numbers indicate a positive lipid-lowering effect.

[1] = 7 days, percent change versus control, negative = lowering, read-out: % Reduction (in vivo) Cholest. Esters
[2] = 7 days, percent change versus control, negative = lowering, read-out: % Reduction (in vivo) Serum Cholest.
[3] = 50 mg/kg once daily oral, 7 days, percent change versus control, negative = lowering, read-out: % Reduction (in vivo) Cholest. Esters
[4] = 50 mg/kg once daily oral, 7 days, percent change versus control, negative = lowering, read-out: % Reduction (in vivo) Serum Cholest.

Row | SMILES | change in vivo at 50 mg/kg [3] [%] | change in vivo at 50 mg/kg [4] [%] | other results
1 | COc1ccc([C@@H]2[C@@H](CCCc3ccccc3)C(=O)N2c2ccccc2)cc1 (relative stereo) [Example 7] |  |  | change in vivo at 3 mg/kg [1]: -50%; change in vivo at 3 mg/kg [2]: -30%; change in vivo at 10 mg/kg [1]: -89.5%; change in vivo at 10 mg/kg [2]: -41%; change in vivo at 40 mg/kg [1]: -95%; change in vivo at 40 mg/kg [2]: -49%
2 | COc1ccc([C@@H]2[C@@H](CCCCCCc3ccccc3)C(=O)N2c2ccc(OC)cc2)cc1 (relative stereo) [Example 5Y] | 0 | -29 | 
3 | COc1ccc([C@@H]2[C@@H]([C@H]3C[C@H]3Cc3ccccc3)C(=O)N2c2ccc(OC)cc2)cc1 (relative stereo) [Example 36] | -94 | -53 | 
4 | COc1ccc([C@@H]2[C@@H](CCCc3ccccc3)C(=O)N2c2ccc(C#N)cc2)cc1 (relative stereo) [Example 7D] | -74 | -35 | 
5 | COc1ccc([C@@H]2[C@H](NC(=O)OCc3ccccc3)C(=O)N2c2ccccc2)cc1 (relative stereo) [Example 12C] | 0 | 0 | 
6 | COc1ccc(N2C(=O)[C@H](CCCc3ccccc3)[C@@H]2c2ccc(N(S(C)(=O)=O)S(C)(=O)=O)cc2)cc1 (relative stereo) [Example 25B] | 0 | 0 | 
7 | COc1ccc([C@@H]2[C@H](NCCc3ccccc3)C(=O)N2c2ccccc2)cc1 (relative stereo) [Example 14] | -87 | 30 | 
8 | COc1ccc([C@@H]2[C@@H](CCCc3ccccc3)C(=O)N2c2ccc(I)cc2)cc1 (relative stereo) [Example 7AA] | -42 | -10 | 
9 | COc1ccc([C@H]2[C@@H](CCCc3ccccc3)C(=O)N2c2ccc(Oc3ccccc3)cc2)cc1 (relative stereo) [Example 1AQ] | -22 | -20 | 
10 | COc1ccc([C@H]2[C@H](CCCc3ccccc3)C(=O)N2c2ccccc2)cc1 [Example 5M] | -50 | -20 | change in vivo at 3 mg/kg [1]: 0%; change in vivo at 3 mg/kg [2]: -12%; change in vivo at 10 mg/kg [1]: -36%; change in vivo at 10 mg/kg [2]: -8%
11 | COc1ccc(N2C(=O)[C@H](CCCc3ccccc3)[C@@H]2c2ccc(OC)c(C)c2)cc1 (relative stereo) [Example 1BA] | 0 | 0 | 
12 | COc1ccc(N2C(=O)[C@H](CCCc3ccccc3)[C@@H]2c2ccnc3ccccc23)cc1 (relative stereo) [Example 1BX] | 0 | 0 | 
13 | COC(=O)c1ccc([C@@H]2[C@@H](CCCc3ccccc3)C(=O)N2c2ccccc2)cc1 (relative stereo) [Example 7R] | -80 | -35 | 
14 | COc1ccc(N2C(=O)[C@@H](CCCc3ccccc3)[C@@H]2c2ccc(C(=O)O)cc2)cc1 (relative stereo) [Example 22] | -33 | -17 | 
15 | COc1ccc([C@@H]2[C@H](N)C(=O)N2c2ccccc2)cc1 (relative stereo) [Example 11] | 0 | -8 | 
16 | COc1ccc(N2C(=O)[C@H](CCCc3ccccc3)[C@@H]2c2nccn2COCC[Si](C)(C)C)cc1 (relative stereo) [Example 1AW] |  |  | change in vivo at 50 mg/kg (read-out: % Reduction (in vivo) Cholest. Esters): -16%; change in vivo at 50 mg/kg (read-out: % Reduction (in vivo) Serum Cholest.): -14%
17 | COc1ccc(N2C(=O)[C@H](CCCc3ccccc3)[C@@H]2c2ccc(OC(C)C)cc2)cc1 (relative stereo) [Example 1AY] | -78 | -28 | 
18 | COc1ccc([C@@H]2[C@@H](CCOc3ccc(F)cc3)C(=O)N2c2ccc(OC)cc2)cc1 (relative stereo) [Example 5AA] | -93 | -53 | 
19 | COc1ccc(N2C(=O)[C@H](CCCc3ccccc3)[C@H]2c2ccc(Oc3ccccc3)cc2)cc1 (relative stereo) [Example 5V] | -77 | -37 | 
20 | COc1ccc([C@@H]2[C@@H](CCCc3ccc([N+](=O)[O-])cc3)C(=O)N2c2ccc(OC)cc2)cc1 (relative stereo) [Example 7Z] | -39 | -21 | 

Row | SMILES | change in vivo at 50 mg/kg [3] [%] | change in vivo at 50 mg/kg [4] [%] | other results
21 | COc1ccc(N2C(=O)[C@H](CCCc3ccccc3)[C@H]2c2ccc(O)c(I)c2)cc1 (relative stereo) [Example 32] | 0 | 0 | 
22 | COc1ccc([C@@H]2[C@@H](OCCc3ccccc3)C(=O)N2c2ccc(OC)cc2)cc1 (relative stereo) [Example 5Z] | 0 | -16 | 
23 | CCOC(=O)COc1ccc([C@H]2[C@@H](CCCc3ccccc3)C(=O)N2c2ccc(OC)cc2)cc1 (relative stereo) [Example 35A] | -84 | -34 | 
24 | COCc1ccc([C@@H]2[C@@H](CCCc3ccccc3)C(=O)N2c2ccc(OC)cc2)cc1 (relative stereo) [Example 21] | -56 | -27 | 
25 | COc1ccc([C@@H]2[C@H](N3C(=O)c4ccccc4C3=O)C(=O)N2c2ccccc2)cc1 (relative stereo) [Example 7L] | 0 | 0 | 
26 | COCOc1ccc([C@@H]2[C@@H](CCCc3ccccc3)C(=O)N2c2ccccc2)cc1 (relative stereo) [Example 7T] | -93 | -49 | 
27 | COc1ccc(N2C(=O)[C@H](CCCc3ccccc3)[C@H]2c2ccc(OC)c(C)c2)cc1 (relative stereo) [Example 7Q] | 0 | -16 | 
28 | COc1ccc(CN[C@@H]2C(=O)N(c3ccccc3)[C@@H]2c2ccc(OC)cc2)cc1 (relative stereo) [Example 14A] | -78 | 31 | 
29 | COc1ccc(OCC[C@H]2C(=O)N(c3ccccc3)[C@@H]2c2ccc(OC)cc2)cc1 (relative stereo) [Example 7AP] | -82 | -24 | 
30 | COc1ccc([C@@H]2[C@@H](CCCc3ccccc3)C(=O)N2c2cccnc2)cc1 (relative stereo) [Example 1AM] | -29 | -12 | 
31 | COc1ccc([C@@H]2[C@@H](CCCc3ccccc3)C(=O)N2c2ccc(C)cc2)cc1 (relative stereo) [Example 5J] | -90 | -38 | 
32 | CCCCCCCCCC[C@H]1C(=O)N(c2ccc(OC)cc2)[C@@H]1c1ccc(OC)cc1 (relative stereo) [Example 7AG] | -15 | 0 | 
33 | COc1ccc([C@@H]2[C@@H](CCCc3ccccc3)C(=O)N2c2cccc(OC)c2)cc1 (relative stereo) [Example 5E] | -91 | -38 | 
34 | COc1ccc([C@@H]2[C@@H](CCCc3ccccc3)C(=O)N2c2cccc([N+](=O)[O-])c2)cc1 (relative stereo) [Example 7B] | -45 | -13 | 
35 | COc1ccc([C@@H]2[C@H](NC(=O)N(C)c3ccccc3)C(=O)N2c2ccccc2)cc1 (relative stereo) [Example 12D] | 0 | 0 | 
36 | COc1ccc([C@@H]2[C@H](NC(=O)Cc3ccccc3)C(=O)N2c2ccccc2)cc1 (relative stereo) [Example 12] | 0 | -12 | 
37 | COc1ccc([C@@H]2[C@@H](CCOc3ccc([N+](=O)[O-])cc3)C(=O)N2c2ccccc2)cc1 (relative stereo) [Example 7AN] | -42 | -12 | 
38 | COc1ccc(N2C(=O)[C@H](CCCc3ccccc3)[C@@H]2c2ccc(C(=O)O)cc2)cc1 (relative stereo) [Example 22A] | -22 | -16 | 
39 | COc1ccc(N2C(=O)[C@H](CCCc3ccccc3)[C@@H]2CN2CCOCC2)cc1 (relative stereo) [Example 19E] | -30 | -19 | 
40 | COc1ccc([C@@H]2[C@@H](CCCc3ccccc3)C(=O)N2c2ccc(Cl)cc2)cc1 (relative stereo) [Example 5G] | -93 | -44 | 
